Assay results: patent publication US10087187B2, “Imidazopyridazine derivatives as PI3KB inhibitors” (Janssen Pharmaceutica NV, priority 2014, dated 2018)
pIC50, pKd: −log10 of the molar value. Read-outs that look alike come from different tables or passages of the source.

How the values were obtained:
PIK3Cβ_h = PIK3Cβ_h (Homo sapiens (Human), UniProt P42338); assay: KINOMEscan enzyme binding assay, PIK3Cβ; details: DiscoveRx
Protocol: (§1) Enzyme Binding Assays (KINOMEscan®) Kinase enzyme binding affinities of compounds disclosed herein were determined using the KINOMEscan technology performed by DiscoveRx Corporation, San Diego, Calif., USA (www.kinomescan.com). Table A reports the obtained Kd values (nM), with the Kd being the inhibitor binding constant: […]

[1] = tested on: Akt phosphorylated at Thr308 in PC-3 cells; assay: Cellular assay: phosphorylation of Akt (Thr308) in PC-3 cells, MSD ELISA; format: cell-based; details: 60 min incubation with compound, read-out: IC50 pAkt_Thr308
Protocol: (§2) Cellular activity of PI3Kβ inhibitors was determined by quantifying the phosphorylation of Akt in PC-3 cells. Akt phosphorylated at Ser473 and Thr308 were measured using an enzyme-linked immunosorbent assay (ELISA; Meso Scale Discovery (MSD), Gaithersburg, Md.) and specific primary antibodies from MSD.
(§3) On day 1, PC3 cells (ATCC # […]) were seeded into PerkinElmer MW96 plates at 25.000 cells per well, in 75 μl complete culture medium (DMEM (Dulbecco's Modified Eagle's Medium) high glucose, AQmedia™, D0819, Sigma-Aldrich) containing 10% heat inactivated FCS (Fetal Bovine Serum) and incubated at 37° C., 5% CO2 during 24 hours. On day 2, compound or DMSO (dimethyl sulfoxide) (0.3%) was added and cells were further incubated for 60 min at 37° C., 5% CO2 in a total volume of 100 μl of medium.
(§4) The phosphoprotein assay was executed according to vendor instructions in the Phospho-Akt (Ser473) Assay Whole Cell Lysate Kit (MSD # K15100D-3) and the Phospho-Akt (Thr308) Assay Whole Cell Lysate Kit (MSD # K151DYD-3) using the lysis, blocking and wash buffer provided.
(§5) Briefly, at the end of the cell treatment period, media were removed by aspiration and adherent cells were lysed in 50 μl ice-cold lysis buffer. MSD plates are supplied pre-coated with capture antibodies for Phospho-Akt (Ser473 and Thr308). After blocking, lysates from tissue culture plates were added and plates were washed. Then, a solution containing the detection antibody (anti-total Akt conjugated with an electrochemiluminescent compound-MSD Sulfo-tag label) was added. The signals were detected using an MSD SECTOR Imager 6000 and are proportional to the phospho-Akt titres.
(§6) Data were processed. The percentage of inhibition was plotted against the log concentration of test compounds, and the sigmoidal log concentration-effect curve of best fit was calculated by nonlinear regression analysis. From these concentration-response curves, the IC50 values were calculated. Five concentrations were used for curve fitting.

PIK3Cγ_h = PIK3Cγ_h (Homo sapiens (Human), UniProt P48736); assay: KINOMEscan enzyme binding assay, PIK3Cγ; details: DiscoveRx
Sequence of PIK3Cγ_h (P48736 whole entry): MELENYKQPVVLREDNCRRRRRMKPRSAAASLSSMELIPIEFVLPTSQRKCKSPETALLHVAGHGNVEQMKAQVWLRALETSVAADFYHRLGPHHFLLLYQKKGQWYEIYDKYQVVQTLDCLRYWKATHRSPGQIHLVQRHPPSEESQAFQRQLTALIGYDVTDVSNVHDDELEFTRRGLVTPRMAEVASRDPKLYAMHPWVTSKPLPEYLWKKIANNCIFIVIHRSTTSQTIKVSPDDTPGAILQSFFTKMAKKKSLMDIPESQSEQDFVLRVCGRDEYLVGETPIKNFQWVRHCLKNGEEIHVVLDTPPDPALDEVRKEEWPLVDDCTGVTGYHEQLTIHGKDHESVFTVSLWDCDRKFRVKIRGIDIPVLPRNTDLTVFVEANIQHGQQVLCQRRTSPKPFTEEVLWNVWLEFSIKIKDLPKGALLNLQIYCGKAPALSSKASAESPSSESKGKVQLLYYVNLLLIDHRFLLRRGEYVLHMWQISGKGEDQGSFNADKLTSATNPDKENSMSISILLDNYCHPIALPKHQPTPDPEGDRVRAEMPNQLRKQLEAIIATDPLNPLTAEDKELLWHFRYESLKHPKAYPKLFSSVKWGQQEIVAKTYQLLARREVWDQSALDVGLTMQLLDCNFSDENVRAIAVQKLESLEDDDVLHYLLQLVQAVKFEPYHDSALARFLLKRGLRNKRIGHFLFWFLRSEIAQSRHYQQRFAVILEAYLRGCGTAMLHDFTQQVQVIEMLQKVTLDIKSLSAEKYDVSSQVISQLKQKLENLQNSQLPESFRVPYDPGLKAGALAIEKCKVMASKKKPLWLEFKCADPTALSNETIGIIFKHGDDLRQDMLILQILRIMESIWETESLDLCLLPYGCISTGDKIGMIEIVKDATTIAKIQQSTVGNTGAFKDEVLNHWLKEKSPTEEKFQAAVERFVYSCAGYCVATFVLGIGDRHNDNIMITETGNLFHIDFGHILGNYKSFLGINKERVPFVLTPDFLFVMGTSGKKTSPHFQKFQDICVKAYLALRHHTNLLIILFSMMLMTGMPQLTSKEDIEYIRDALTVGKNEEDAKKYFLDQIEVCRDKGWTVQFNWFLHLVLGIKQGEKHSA
Protocol: (§7) Enzyme Binding Assays (KINOMEscan®) Kinase enzyme binding affinities of compounds disclosed herein were determined using the KINOMEscan technology performed by DiscoveRx Corporation, San Diego, Calif., USA (www.kinomescan.com).

[2] = tested on: Akt phosphorylated at Ser473 in PC-3 cells; assay: Cellular assay: phosphorylation of Akt (Ser473) in PC-3 cells, MSD ELISA; format: cell-based; details: 60 min incubation with compound, read-out: IC50 pAkt_S473
Protocol: as §2, §3, §4, §5, §6

MTOR_h = MTOR_h (Homo sapiens (Human), UniProt P42345); assay: KINOMEscan enzyme binding assay, MTOR; details: DiscoveRx
Protocol: as §7

PIK3Cδ_h = PIK3Cδ_h (Homo sapiens (Human), UniProt O00329); assay: KINOMEscan enzyme binding assay, PIK3Cδ; details: DiscoveRx
Sequence of PIK3Cδ_h (O00329 whole entry): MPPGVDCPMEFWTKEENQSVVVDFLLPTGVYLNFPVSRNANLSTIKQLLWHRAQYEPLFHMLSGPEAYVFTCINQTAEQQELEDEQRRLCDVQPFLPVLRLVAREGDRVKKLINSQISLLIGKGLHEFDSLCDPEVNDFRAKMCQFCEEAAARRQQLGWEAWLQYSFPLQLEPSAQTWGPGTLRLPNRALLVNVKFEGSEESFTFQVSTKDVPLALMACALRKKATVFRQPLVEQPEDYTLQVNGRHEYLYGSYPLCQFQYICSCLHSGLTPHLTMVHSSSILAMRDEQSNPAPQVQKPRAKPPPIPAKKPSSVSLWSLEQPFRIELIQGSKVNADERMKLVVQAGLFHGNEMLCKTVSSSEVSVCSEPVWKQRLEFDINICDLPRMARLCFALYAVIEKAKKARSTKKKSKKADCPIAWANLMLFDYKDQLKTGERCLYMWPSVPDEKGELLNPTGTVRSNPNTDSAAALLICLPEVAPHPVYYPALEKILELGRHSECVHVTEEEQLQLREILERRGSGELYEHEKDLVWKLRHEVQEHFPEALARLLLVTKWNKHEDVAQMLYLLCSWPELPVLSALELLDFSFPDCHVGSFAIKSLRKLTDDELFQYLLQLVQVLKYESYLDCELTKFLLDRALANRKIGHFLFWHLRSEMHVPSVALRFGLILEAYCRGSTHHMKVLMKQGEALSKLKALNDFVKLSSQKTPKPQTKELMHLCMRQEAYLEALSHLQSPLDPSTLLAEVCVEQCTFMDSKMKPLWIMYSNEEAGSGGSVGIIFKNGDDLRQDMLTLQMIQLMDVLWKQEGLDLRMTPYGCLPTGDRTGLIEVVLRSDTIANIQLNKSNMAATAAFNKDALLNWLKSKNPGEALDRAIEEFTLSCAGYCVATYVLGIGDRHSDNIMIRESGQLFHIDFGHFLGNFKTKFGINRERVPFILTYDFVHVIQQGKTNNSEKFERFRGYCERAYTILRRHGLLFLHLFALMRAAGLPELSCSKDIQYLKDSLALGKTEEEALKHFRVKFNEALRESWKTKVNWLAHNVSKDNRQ
Protocol: as §1

PIK3Cα_h = PIK3Cα_h (Homo sapiens (Human), UniProt P42336); assay: KINOMEscan enzyme binding assay, PIK3Cα; details: DiscoveRx
Sequence of PIK3Cα_h (P42336 whole entry): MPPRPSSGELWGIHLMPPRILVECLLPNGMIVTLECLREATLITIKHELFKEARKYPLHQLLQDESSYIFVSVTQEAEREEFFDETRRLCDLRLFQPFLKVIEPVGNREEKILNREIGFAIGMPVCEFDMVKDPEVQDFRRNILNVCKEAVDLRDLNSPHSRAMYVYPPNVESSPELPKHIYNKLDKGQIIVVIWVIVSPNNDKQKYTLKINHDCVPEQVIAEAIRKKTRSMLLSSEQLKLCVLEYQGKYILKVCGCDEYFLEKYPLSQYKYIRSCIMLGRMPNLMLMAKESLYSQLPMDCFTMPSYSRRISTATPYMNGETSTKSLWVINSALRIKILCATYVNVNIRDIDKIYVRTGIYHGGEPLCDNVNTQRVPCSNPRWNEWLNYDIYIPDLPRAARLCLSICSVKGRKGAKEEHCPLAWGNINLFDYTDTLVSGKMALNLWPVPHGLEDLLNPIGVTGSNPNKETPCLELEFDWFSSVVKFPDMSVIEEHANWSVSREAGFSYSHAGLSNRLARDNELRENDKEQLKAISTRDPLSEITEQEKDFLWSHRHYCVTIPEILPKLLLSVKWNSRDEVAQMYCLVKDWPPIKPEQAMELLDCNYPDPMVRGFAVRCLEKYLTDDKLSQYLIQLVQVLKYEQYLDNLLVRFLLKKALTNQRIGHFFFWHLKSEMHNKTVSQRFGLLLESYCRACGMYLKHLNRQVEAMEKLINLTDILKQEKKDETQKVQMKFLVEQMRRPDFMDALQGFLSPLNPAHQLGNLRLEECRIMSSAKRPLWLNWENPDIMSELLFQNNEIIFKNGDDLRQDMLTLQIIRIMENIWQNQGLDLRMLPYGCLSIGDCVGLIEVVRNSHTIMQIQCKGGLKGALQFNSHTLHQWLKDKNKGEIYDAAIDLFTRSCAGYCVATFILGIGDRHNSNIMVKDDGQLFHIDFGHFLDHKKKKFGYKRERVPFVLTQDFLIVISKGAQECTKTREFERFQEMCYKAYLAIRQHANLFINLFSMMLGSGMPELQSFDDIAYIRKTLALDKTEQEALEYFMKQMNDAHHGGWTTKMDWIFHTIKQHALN
Protocol: as §7

Sequence of PIK3Cβ_h (P42338 whole entry): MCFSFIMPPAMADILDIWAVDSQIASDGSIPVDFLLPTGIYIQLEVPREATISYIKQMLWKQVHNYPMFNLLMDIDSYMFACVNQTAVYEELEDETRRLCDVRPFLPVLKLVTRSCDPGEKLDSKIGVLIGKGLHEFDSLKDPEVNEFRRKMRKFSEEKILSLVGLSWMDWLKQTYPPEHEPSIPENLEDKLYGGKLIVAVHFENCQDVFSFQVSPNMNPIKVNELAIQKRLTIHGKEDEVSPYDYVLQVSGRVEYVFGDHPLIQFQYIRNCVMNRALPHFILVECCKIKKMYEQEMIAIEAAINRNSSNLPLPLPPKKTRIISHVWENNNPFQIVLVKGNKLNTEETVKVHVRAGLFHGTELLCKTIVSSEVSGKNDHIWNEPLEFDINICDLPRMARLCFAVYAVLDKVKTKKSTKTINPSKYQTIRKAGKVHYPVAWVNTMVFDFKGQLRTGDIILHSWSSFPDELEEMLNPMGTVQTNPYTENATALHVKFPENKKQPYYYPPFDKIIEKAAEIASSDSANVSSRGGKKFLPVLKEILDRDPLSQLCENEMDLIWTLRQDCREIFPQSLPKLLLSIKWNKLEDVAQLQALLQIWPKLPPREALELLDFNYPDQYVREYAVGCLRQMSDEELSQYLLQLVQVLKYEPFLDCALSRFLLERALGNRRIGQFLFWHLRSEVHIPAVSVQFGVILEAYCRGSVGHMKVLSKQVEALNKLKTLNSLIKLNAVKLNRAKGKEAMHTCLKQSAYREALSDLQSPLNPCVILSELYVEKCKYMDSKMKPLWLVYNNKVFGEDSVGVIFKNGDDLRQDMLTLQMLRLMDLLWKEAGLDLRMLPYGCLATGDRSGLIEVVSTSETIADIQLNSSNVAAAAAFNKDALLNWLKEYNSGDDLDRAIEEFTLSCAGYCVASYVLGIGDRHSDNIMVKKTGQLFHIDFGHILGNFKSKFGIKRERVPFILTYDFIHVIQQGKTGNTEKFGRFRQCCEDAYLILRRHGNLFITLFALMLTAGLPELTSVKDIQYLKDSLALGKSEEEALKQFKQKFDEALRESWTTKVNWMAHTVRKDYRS

SMILES	pKd (PIK3Cβ_h)	pIC50 [1]	pKd (PIK3Cγ_h)	pIC50 [2]	pKd (MTOR_h)	pKd (PIK3Cδ_h)	pKd (PIK3Cα_h)	pIC50 ([1]; Homo sapiens, PC-3, 1 h)	pIC50 ([2]; Homo sapiens, PC-3, 1 h)
Cc1c(Cc2c(CO)nc3c(-c4c[nH]cn4)cc(N4CCOC(C)C4)nn23)cccc1C(F)(F)F (stereo not shown) [Compound 27]	8.62	7.85	6.32	7.38	6.35	7.24	6.21		
Cc1nc2c(N)cc(N3CCOCC3)nn2c1Cc1cccc2c1CN(C(C)C)CC2 [Compound 110]	6.29		< 4.52		< 4.52	5.62	< 4.52	6.65	6.49
Cc1nc2c(N)cc(N3CCOCC3)nn2c1Cc1cccc(F)c1C1CCNCC1 [Compound 106]	9.30		5.30		< 4.52	6.43	5.56	6.89	6.76
Cc1c(Cc2c(CO)nc3c(N)cc(N4CCOCC4)nn23)cccc1C(F)(F)F [Compound 14]	8.89	~7.42	< 5.05	~7.20	< 5.24	6.68	< 5.04		
Cc1nc2c(N)cc(N3CCOCC3)nn2c1Nc1cccc(C(F)(F)F)c1CN1CCC(S(C)(=O)=O)C1 (stereo not shown) [Compound 47]	8.60		4.68		< 4.52	7.33	4.98	7.36	7.23
Cc1nc2c(N)cc(N3CCOCC3)nn2c1Nc1cccc(C(F)(F)F)c1CN1CC2(CCS2(=O)=O)C1 [Compound 53]	8.30		4.71		< 4.52	7.14	5.00	~7.06	~6.75
Cc1c(Cc2c(COC(=O)C(N)Cc3ccccc3)nc3c(N)cc(N4CCOCC4)nn23)cccc1C(F)(F)F (stereo not shown) [Compound 80]	7.36		< 4.52		< 4.52	5.22	< 4.52	~6.71	6.68
Cc1c(Cc2c(C(C)O)nc3c(N)cc(N4CCOCC4)nn23)cccc1C(F)(F)F (stereo not shown) [Compound 32]	8.74		4.92		4.65	6.45	4.83	7.46	7.06
Cc1nc2c(C(=O)O)cc(N3CCOCC3)nn2c1Nc1cccc(C(F)(F)F)c1C [Compound 36]	9.05		5.39		4.66	7.24	6.17	6.71	~6.48
Cc1nc2c(N)cc(N3CCOCC3)nn2c1Nc1cccc(F)c1CN1CCOCC1 [Compound 63]	8.66		4.70		5.50	7.38	5.38	7.02	6.86
Cc1nc2c(N)cc(N3CCOCC3)nn2c1Nc1cccc(C(F)(F)F)c1CN1CCCC1 [Compound 62]	8.00		4.52		< 4.52	7.46	4.65	~7.13	6.96
Cc1nc2c(N)cc(N3CCOCC3)nn2c1Nc1cccc(C(F)(F)F)c1C1CCN(CCO)CC1 [Compound 73]	9.52		4.62		< 4.52	7.55	5.49	~7.14	7.05
Cc1nc2c(N)cc(N3CCOCC3)nn2c1Nc1cccc(C(F)(F)F)c1CN1CCC2(C1)CS(=O)(=O)C2 [Compound 49]	8.05		< 4.52		< 4.52	6.48	4.87	~7.68	7.35
Cc1c(Cc2c(CO)nc3c(C(N)=O)cc(N4CCOCC4)nn23)cccc1C(F)(F)F [Compound 15]	8.15		5.70		< 4.52	6.32	5.96	~7.37	~7.04

More lines, now with the values ahead:

pKd (PIK3Cβ_h)	pIC50 [1]	pKd (PIK3Cγ_h)	pIC50 [2]	pKd (MTOR_h)	pKd (PIK3Cδ_h)	pKd (PIK3Cα_h)	pIC50 ([1]; Homo sapiens, PC-3, 1 h)	pIC50 ([2]; Homo sapiens, PC-3, 1 h)	SMILES
9.30	7.01	4.90	6.85	5.10	7.32	4.92			Cc1c(Cc2c(COC(=O)C(C)N)nc3c(N)cc(N4CCOCC4)nn23)cccc1C(F)(F)F (stereo not shown) [Compound 84]
8.08		5.48		5.79	6.08	4.98	6.70	6.59	CCc1c(F)cccc1Cc1c(CO)nc2c(N)cc(N3CCOCC3)nn12 [Compound 99]
9.70		5.01		< 4.52	7.80	5.14	~6.83	6.66	Cc1cccc(Nc2c(C)nc3c(N)cc(N4CCOCC4)nn23)c1C1CCNCC1 [Compound 60]
9.30		6.49		6.73	7.77	6.71	7.13	7.64	Cc1c(Cl)cccc1Cc1c(CO)nc2c(-c3c[nH]cn3)cc(N3CCOCC3)nn12 [Compound 67]
8.10		< 4.52		4.77	7.47	4.68	6.95	6.78	Cc1nc2c(N)cc(N3CCOCC3)nn2c1Nc1cccc2c1CCNC2 [Compound 64]
8.40		4.89		5.03	7.82	5.39	8.00	7.74	Cc1nc2c(N)cc(N3CCOCC3)nn2c1Nc1cccc(C(F)(F)F)c1CN1CCOCC1 [Compound 38]
6.70	< 6.29	< 4.52	6.35	5.93	< 4.52	< 4.52			Cc1c(Cc2c(CO)nc3c(-c4c[nH]cn4)cc(N4CCOC(C)C4)nn23)cccc1C(F)(F)F (stereo not shown) [Compound 25]
8.15		6.02		5.77	7.92	6.56	7.66	~7.43	Cc1nc2c(-c3cnc[nH]3)cc(N3CCOCC3)nn2c1Nc1cccc(C(F)(F)F)c1CN1CCOCC1 [Compound 41]
7.92		< 4.52		< 4.52	6.31	4.79	7.01	6.70	Cc1nc2c(N)cc(N3CCOCC3)nn2c1Nc1cccc(C(F)(F)F)c1CN1CCC(S(C)(=O)=O)CC1 [Compound 54]
7.74		4.98		5.24	5.85	4.78	6.38	< 6.29	Cc1nc2c(N)cc(N3CCOCC3)nn2c1Cc1cccc(F)c1CO [Compound 94]
8.72		5.32		4.97	7.40	5.24	7.48	7.36	Cc1nc2c(N)cc(N3CCOCC3)nn2c1Nc1cccc(C(F)(F)F)c1CN1CC(O)C1 [Compound 52]
7.82		< 4.52		< 5.00	6.28	< 5.48	6.87	6.57	Cc1nc2c(-c3ncc[nH]3)cc(N3CCOCC3)nn2c1Cc1cccc(C(F)(F)F)c1C [Compound 7]
8.66		5.32		< 5.00	7.07	5.77	~7.60	7.48	Cc1c(Cc2c(CO)nc3c(-c4ncc[nH]4)cc(N4CCOCC4)nn23)cccc1C(F)(F)F [Compound 20]
7.13		4.50		4.61	6.00	< 4.52	< 6.42	< 6.37	Cc1nc2c(N)cc(N3CCOCC3)nn2c1Cc1cccc(F)c1CNC(C)CO (stereo not shown) [Compound 103]
